Experimental data reported in US11491175B2, “Synergistic bioactive compositions for enhancing cellular energy” (CELAGENEX RESEARCH (INDIA) PVT. LTD., priority 2019, dated 2022).
Several values for one entry are separate records, joined by “and”; a condition that tells them apart may be missing. Equal values may be shown once.

Legend:
[1] = tested on: HepG2 (Human Hepatocyte) cell line; test: In vitro cytotoxicity by MTT colorimetric assay on HepG2 cell line; format: cell-based; settings: for % Inhibition: 72 hours incubation
Method: The in vitro cytotoxicity study was performed on HepG2 (Human Hepatocyte) cell line to find a nontoxic concentration of the test substances by MTT colorimetric assay and evaluate their potential on cellular respiration by measuring cellular ATP levels.
About 10 mg of all the test substances (as indicated in Table 1) were separately dissolved with 100 μl of Dimethyl sulfoxide (DMSO) and volume was made up with Dulbecco's Modified Eagle Medium-High glucose (DMEM-HG) supplemented with 2% inactivated Fetal Bovine Serum (FBS) to obtain a stock solution of 1 mg/ml concentration and sterilized by 0.22p, syringe filtration. Serial two-fold dilutions were prepared from the stock for carrying out further studies.
The monolayer cell culture was trypsinized and the cell count was adjusted to 1.0×10^5 cells/ml using Ham's F12 medium containing 10% FBS to obtain a cell suspension. To each well of the 96 well microtitre plate, 0.1 ml of the diluted cell suspension was added. After 24 hours, when a partial monolayer was formed, the supernatant was flicked off, the monolayer was washed once with medium and 100 μl of different concentrations of test substances were added. The plate was then incubated at 37° C. for 72 hours in a 5% CO2 atmosphere, and microscopic examination was carried out and observations were noted every 24 hours.
After 72 hours of incubation, the drug solutions in the wells were discarded and 50 μl of MTT in PBS was added to each well. The plate was gently shaken and incubated for 3 hr at 37° C. in a 5% CO2 atmosphere. The supernatant was removed and 100 μl of 2-propanol was added and the plate was gently shaken to solubilize the formed formazan. The absorbance was measured using a microplate reader at a wavelength of 540 nm. The percentage growth inhibition was calculated using the standard formula. The concentration of test substances needed to inhibit the growth of the cell by 50% i.e., CTC50 values were generated from the dose-response curves.

HepG2 cells = test: Estimation of cellular respiration by measuring cellular ATP levels in HepG2 cells; format: cell-based, Human; settings: for Cellular ATP / Percentage enhancement of cellular ATP levels over control: HepG2, 2 hours treatment
Method: The test substances were evaluated for their in vitro effect on cellular energy by measuring cellular ATP levels in human Hepatocytes (HepG2) cell line.
HepG2 cells were trypsinized from stock culture flasks and the cell count was adjusted to 1.0×10^5 cells/ml to obtain a cell suspension that was seeded into a 96-well plate. […] After 2 hours of treatment, the plate was washed with phosphate buffer saline. The cellular ATP levels determination was performed according to the instructions given in the kit manual (SIGMA, #MAK190). At the end of the experiment, the optical density was read at 570 nm using microplate reader. From the absorbance values, the cellular ATP levels were estimated using kit protocol and the concentration of cellular ATP in treated groups were determined in comparison to the control groups.

[2] = along with H2O2 (20 μM) (IMP 500 μg/ml, NMN 250 μg/ml, IMP + NMN 500 + 250 μg/ml)
[3] = substance alone (IMP 500 μg/ml, NMN 250 μg/ml, IMP + NMN 500 μg/ml, H2O2 20 μM)

Molecule	% Inhibition ([1]; test conc. 62.5 μg/ml)	% Inhibition ([1]; test conc. 125 μg/ml)	% Inhibition ([1]; test conc. 250 μg/ml)	% Inhibition ([1]; test conc. 500 μg/ml)	% Inhibition ([1]; test conc. 1000 μg/ml)	CTC 50 ([1]; 72 hours, concentration needed to inhibit cell growth by 50%)	Cellular ATP (HepG2 cells; [2])	Percentage enhancement of cellular ATP levels over control (HepG2 cells; [2])	Cellular ATP (HepG2 cells; [3])	Percentage enhancement of cellular ATP levels over control (HepG2 cells; substance alone (IMP 500 μg/ml, NMN 250 μg/ml, IMP + NMN 2:1 500 μg/ml), over hydrogen peroxide control)	Percentage enhancement of cellular ATP levels over control (HepG2 cells; substance alone (IMP 500 μg/ml, NMN 250 μg/ml, IMP + NMN 2:1 500 μg/ml), over hydrogen peroxide control, listed as G4)	cellular ATP levels (in words) (HepG2 cells; HepG2, in combination with Hydrogen peroxide (20 μM))
NC(=O)c1ccc[n+]([C@@H]2O[C@H](COP(=O)([O-])O)[C@@H](O)[C@H]2O)c1 [NMN, β-Nicotinamide mononucleotide]	2.26 ± 1.49%	21.59 ± 1.89%	30.51 ± 0.38%	59.95 ± 1.78%	76.59 ± 0.54%	415 ± 8.99 µg/mL and 415.92 ± 8.99 µg/mL	8.28 ± 0.65 nmol	29.01 ± 4.25%	4.43 ± 0.23 nmol	13.97±1.25%	13.97 ± 1.25%	increased the cellular ATP levels significantly
Hydrogen Peroxide [Composition G2]	–	–	–	–	–	–	–	–	0.86 ± 0.02 nmol	–	–	–
